For one compound, inhibition results are on record in publication PMC12505902, “Inhibitors of trehalose-6-phosphate synthase activity in fungal pathogens compromise thermal tolerance pathways” (mBio, 2025).

The target of the experiment is 6xHis-CnTps1 (Cryptococcus neoformans var. grubii, UniProt J9VJZ1). Description: Spectrophotometric-coupled Tps1 enzyme activity assay. Type of experiment: biochemical, C. neoformans. The conditions noted are these: 1 mM 4456dh. The protocol: Fig 2 4456dh binds Tps1 and inhibits Tps1 activity. (A) Structure of 4456dh. (B and C) Glo-melt thermal shift assays reveal 4456dh destabilizes 6xHis-CaTps1 (B) and 6xHis-CnTps1 (C). The first derivative of the raw data was used to determine the melting temperature of 1 µM 6xHis-CaTps1 (B) and 1 µM 6xHis-CnTps1 (C) treated without (black) or with 2 mM 4456dh (red). […] The resulting dose-response curves were fitted to a one-site binding model to extract Kd values; the SD was calculated using the Kd values from each independent experiment (n = 3). (F) Tps1 enzyme activity assay with 5 µM 6xHis-CaTps1 (F) and 6xHis-CnTps1 (G) ±1 mM 4456dh. Error bars represent SE. […]
The ability of 4456dh to inhibit the activity of CaTps1 was tested using a spectrophotometric-coupled Tps1 enzyme assay, in which recombinant 6xHis-CaTps1 was incubated with 1 mM 4456dh at 4°C for 16 hours. […] Similarly, the effect of 1 mM 4456dh on 6xHis-CnTps1 activity was determined. […]
82 determined by SDS-PAGE analysis, were pooled and concentrated to 1 mg/mL for downstream […]
93 The data were acquired with MO.Control 1.5.3 (NanoTemper Technologies GmbH). Recorded
94 data were analyzed with MO.Affinity Analysis 2.2.7 (NanoTemper Technologies GmbH). […]
100 2X Glo-melt dye. Thermal denaturation was measured using an RT-PCR thermocycler (BioRad) […]
102 determined by identifying the inflection point of the derivative data. […]

For orientation: inhibition means the change of the read-out against control, counted positive when it falls. Lower therefore signals a response near the control.

Molecules are shown by their SMILES.

Chain of 6xHis-CnTps1 (J9VJZ1 entry or part of it): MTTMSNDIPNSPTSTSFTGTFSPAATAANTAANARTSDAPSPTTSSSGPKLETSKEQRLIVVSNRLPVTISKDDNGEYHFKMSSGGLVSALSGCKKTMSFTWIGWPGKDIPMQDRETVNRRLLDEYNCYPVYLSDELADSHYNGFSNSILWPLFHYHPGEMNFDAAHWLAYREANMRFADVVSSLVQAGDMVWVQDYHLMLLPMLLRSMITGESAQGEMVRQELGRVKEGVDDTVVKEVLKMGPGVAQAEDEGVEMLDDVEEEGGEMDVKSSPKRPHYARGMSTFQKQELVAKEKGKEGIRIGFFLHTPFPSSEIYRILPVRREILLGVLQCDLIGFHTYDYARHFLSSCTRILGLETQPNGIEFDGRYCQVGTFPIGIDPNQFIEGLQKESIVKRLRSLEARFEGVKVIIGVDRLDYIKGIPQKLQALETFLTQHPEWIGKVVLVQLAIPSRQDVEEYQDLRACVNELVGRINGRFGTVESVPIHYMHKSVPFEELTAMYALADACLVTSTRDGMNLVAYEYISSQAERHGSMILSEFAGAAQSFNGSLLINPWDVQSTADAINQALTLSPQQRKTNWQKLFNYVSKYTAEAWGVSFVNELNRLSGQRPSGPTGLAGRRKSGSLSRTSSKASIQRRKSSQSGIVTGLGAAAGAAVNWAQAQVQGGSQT

Turning to `Cn1cc(-c2csc(NC(=O)Cc3ccccn3)n2)cn1` [Compound 4456dh], the inhibition at 1000 µM is ~30%.
